One experiment relates to T-47D cells. The experiment is described as follows: T-47D cell proliferation (estrogenicity / cytotoxicity), MTS. It is filed as cell-based. Conditions: Homo sapiens, T47D, control cells set to 100%, mean±SD. The method, then: The library of phenolic compounds described above was tested on estrogen-sensitive breast cancer T-47D cells.
In Table 1, cell proliferation of control cells is set to 100%. Results are expressed as mean±SD of one experiment in triplicate.
CellTitter 96® Aqueous One Solution Cell Proliferation Assay was used as an indirect colorimetric measurement of cell proliferation according to the manufacturer's instructions. Briefly, after the treatments, 20 μL of MTS solution was added to each well (100 μL) of the plates and incubated at 37° C. for 2 h (Saos-2) or 4 h (T-47D). The absorbance at 490 nm was then measured with a Thermo max microplate reader (Molecular Devices, Sunnyvale, Calif.). The control (culture media+DMSO) is set to 100% of cell proliferation.
The cells were plated in 96-well plates at a density of 3 000 cells/well and allowed to attach for 48 h. After this pre-incubation, the inhibitors and the reference compounds diluted in fresh culture media were added to the wells and replaced every 2 days for 7 days of treatment.

The next experiment concerns the target T1, STS (Homo sapiens, UniProt P08842).
T1 construct: expressed in transfected cells; host or cells: HEK-293 cells stably transfected with STS (G418 selection), obtained from Dr. Van Luu-The; used as freeze-thaw homogenate
T1 sequence (P08842 22-583): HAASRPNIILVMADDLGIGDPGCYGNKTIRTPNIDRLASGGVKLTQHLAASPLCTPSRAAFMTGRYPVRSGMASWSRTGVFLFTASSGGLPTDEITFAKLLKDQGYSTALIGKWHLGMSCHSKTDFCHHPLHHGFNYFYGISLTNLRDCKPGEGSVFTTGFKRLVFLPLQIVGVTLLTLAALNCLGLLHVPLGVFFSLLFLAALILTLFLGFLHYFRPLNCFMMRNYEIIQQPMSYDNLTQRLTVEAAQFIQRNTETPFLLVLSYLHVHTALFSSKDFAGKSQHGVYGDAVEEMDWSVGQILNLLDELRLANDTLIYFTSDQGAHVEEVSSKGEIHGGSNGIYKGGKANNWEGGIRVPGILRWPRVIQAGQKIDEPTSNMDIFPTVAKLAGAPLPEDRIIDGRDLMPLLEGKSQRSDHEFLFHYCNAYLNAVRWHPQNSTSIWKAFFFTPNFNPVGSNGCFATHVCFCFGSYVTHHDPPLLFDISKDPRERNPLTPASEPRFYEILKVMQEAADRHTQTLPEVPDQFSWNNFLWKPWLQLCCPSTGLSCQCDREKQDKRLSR
Briefly: STS inhibition of libraries 1-EO to 4-EO, homogenate of STS transfected HEK-293 cells. Conditions: mean ± SEM, triplicate. It is filed as biochemical. The method, then:
The enzymatic assay was performed using homogenate of STS transfected HEK-293 cells as the source of enzyme activity. The transformation of [^3H]-E1S into [^3H]-E1 was measured using scintillation counting of labeled E1S and E1 in the aqueous and organic phases, respectively. Newly synthesized sulfamate compounds were tested at two concentrations (0.1 μM and 1 μM). Libraries 1-EO and 2-EO were synthesized using the p- and m-benzamide spacers as 1st level of molecular diversity and the same wide variety of secondary amines as 2nd level of diversity (Table 2), which were chosen in a somewhat random fashion while including a different pattern, format and heteroatom. […] Compounds 1-EO-07, 1-EO-09 and 1-EO-10 represent a starting point for optimization, as they show more than 36% of inhibition when tested at a concentration of 0.1 μM. These compounds have relatively hydrophobic substituents compared to the rest of the library members. […] The average log P value for the rest of the library, excluding these three compounds, is 1.93.
This enzymatic assay was carried out according to a procedure previously described for the transformation of substrate [^3H]-E1S (100 μM) into [^3H]-E1 by homogenated HEK-293 cells over-expressing the enzyme activity.^56,73

“And” between values parts separate entries of the source, which are not always exact repeats. Equal entries are not always repeated.

As a reminder, the inhibition is the share of the control response that was lost under treatment. Lower therefore signals little suppression.

As for `O=C(c1ccc(CN(CCCn2ccnc2)Cc2ccccn2)cc1)N1CCc2ccc(O)cc2C1` [Compound 23, (7-hydroxy-3,4-dihydroisoquinolin-2(1H)-yl)[4-({[3-(1H-imidazol-1-yl)propyl](pyridin-2-ylmethyl)amino}methyl)phenyl]methanone], in the experiment with T-47D cells, the activity at 0.01 µM was determined as 103 ± 2.2%, the activity at 0.1 µM was 113 ± 3.7% and the activity at 1 µM stood at 39.2 ± 2.9%.

For `O=C(c1ccc(CN(Cc2ccc(Br)cc2)Cc2ccco2)cc1)N1CCc2ccc(O)cc2C1` [Compound 26, (4-{[(4-bromobenzyl)(furan-2-ylmethyl)amino]methyl}phenyl)(7-hydroxy-3,4-dihydroisoquinolin-2(1H)-yl)methanone], in the experiment on T-47D cells, the activity at 0.01 µM was 106.3 ± 0.6%, the activity at 0.1 µM worked out at 109 ± 1.2% and the activity at 1 µM worked out at 59.2 ± 3.1%.

As for `O=C(c1ccc(CN(Cc2ccc(OCCCN3CCCCC3)cc2)Cc2ccccn2)cc1)N1CCc2ccc(O)cc2C1` [Compound 20, (7-hydroxy-3,4-dihydroisoquinolin-2(1H)-yl)(4-{[{4-[3-(piperidin-1-yl)propoxy]benzyl}(pyridin-2-ylmethyl)amino]methyl}phenyl)methanone], in the experiment on T-47D cells, the activity at 0.01 µM was 105.9 ± 1%, the activity at 0.1 µM is 104 ± 4.8% and the activity at 1 µM was determined as 60.7 ± 6.4%.

For the compound `O=C(c1ccc(CN(Cc2ccc(O)cc2)Cc2ccco2)cc1)N1CCc2ccc(O)cc2C1` [Compound 30, (4-{[(furan-2-ylmethyl)(4-hydroxybenzyl)amino]methyl}phenyl)(7-hydroxy-3,4-dihydroisoquinolin-2(1H)-yl)methanone], in the experiment with T-47D cells, the activity at 0.01 µM came to 108 ± 5.5%, the activity at 0.1 µM was 138 ± 1.2% and the activity at 1 µM amounted to 200 ± 4.9%.

In the case of `Cc1ccc(CN(Cc2ccc(C(=O)N3CCc4ccc(O)cc4C3)cc2)Cc2ccccn2)s1` [Compound 28, (7-hydroxy-3,4-dihydroisoquinolin-2(1H)-yl)[4-({[(5-methylthiophen-2-yl)methyl](pyridin-2-ylmethyl)amino}methyl)phenyl]methanone], in the experiment with T-47D cells, the activity at 0.01 µM turned out to be 101 ± 3.8%, the activity at 0.1 µM was found to be 105 ± 4.4% and the activity at 1 µM came out at 78.9 ± 6.8%.

As for `O=C(c1ccc(CN(Cc2ccccn2)Cc2ccccc2OCCCN2CCCCC2)cc1)N1CCc2ccc(O)cc2C1` [Compound 19, (7-hydroxy-3,4-dihydroisoquinolin-2(1H)-yl)(4-{[{2-[3-(piperidin-1-yl)propoxy]benzyl}(pyridin-2-ylmethyl)amino]methyl}phenyl)methanone], in the experiment on T-47D cells, the activity at 0.01 µM is 103 ± 6.9%, the activity at 0.1 µM was found to be 99.8 ± 4.2% and the activity at 1 µM is 37.1 ± 4.2%.

Consider `O=C(c1ccc(CN(CCN2CCOCC2)Cc2ccco2)cc1)N1CCc2ccc(O)cc2C1` [Compound 27, [4-({(furan-2-ylmethyl)[2-(morpholin-4-yl)ethyl]amino}methyl)phenyl](7-hydroxy-3,4-dihydroisoquinolin-2(1H)-yl)methanone], for which, in the experiment on T-47D cells, the activity at 0.01 µM was determined as 108 ± 5.5%, the activity at 0.1 µM came out at 106 ± 1.5% and the activity at 1 µM was 119 ± 9.6%.

Regarding `O=C(c1ccc(CN(Cc2ccco2)Cc2ccccc2OCCCN2CCCCC2)cc1)N1CCc2ccc(O)cc2C1` [Compound 21], in the experiment with T-47D cells, the activity at 0.01 µM was 96.8 ± 1.2%, the activity at 0.1 µM is 106 ± 5.6% and the activity at 1 µM was found to be 0%.

As for `NS(=O)(=O)Oc1ccc2c(c1)CN(C(=O)c1ccc(CN3CCN(c4ncccn4)CC3)cc1)CC2` [1-EO-06], the “STS inhibition (%)” value at STS (0.1 μM) came to 14.7 ± 3.6%; on STS (1 μM), 41.9 ± 0.8%.

Take `CCN(Cc1ccccc1)Cc1ccc(S(=O)(=O)N2CCc3ccc(OS(N)(=O)=O)cc3C2)cc1` [Compound 14]: the inhibition at 0.1 µM on STS (0.1 μM) stood at 10%. The compound also showed an inhibition at 1 µM on STS (1 μM) of 31%.

For `CC(C)CCN(CCC(C)C)Cc1cccc(C(=O)N2CCc3ccc(OS(N)(=O)=O)cc3C2)c1` [4-EO-09], the “STS inhibition (%)” value on STS (0.1 μM) is 32.3 ± 2.9%.

Turning to `NS(=O)(=O)Oc1ccc2c(c1)CN(C(=O)c1cccc(CN3CCc4ccccc4C3)c1)CC2` [4-EO-10], the “STS inhibition (%)” value at STS (0.1 μM) is reported as 24.1 ± 5.6%; on STS (1 μM), 50.2 ± 1.9%.

For the compound `CCN(Cc1ccccc1)Cc1ccc(C(=O)N2CCc3ccc(OS(N)(=O)=O)cc3C2)cc1` [1-EO-09], the “STS inhibition (%)” value on STS (1 μM) is reported as 83.6 ± 0.2%; on STS (1 μM, listed as 1-EO-9, 1 µM), 84%.

Take `O=C(c1ccc(CN(CCCn2ccnc2)Cc2ccco2)cc1)N1CCc2ccc(O)cc2C1` [Compound 24, [4-({(furan-2-ylmethyl)[3-(1H-imidazol-1-yl)propyl]amino}methyl)phenyl](7-hydroxy-3,4-dihydroisoquinolin-2(1H)-yl)methanone]: in the experiment on T-47D cells, the activity at 0.01 µM came to 94.9 ± 1.3%, the activity at 0.1 µM came out at 98.5 ± 4.5% and the activity at 1 µM came to 115 ± 5.9%.

Consider `NS(=O)(=O)Oc1ccc2c(c1)CN(C(=O)c1cccc(CN3CCC(N4CCCCC4)CC3)c1)CC2` [2-EO-08], for which the “STS inhibition (%)” value is reported as 0.0 ± 2.4% on STS (0.1 μM) and 8.0 ± 1.1% at STS (1 μM).

In the case of `O=C(c1ccc(CN(Cc2ccc(OCCCN3CCCCC3)cc2)Cc2ccco2)cc1)N1CCc2ccc(O)cc2C1` [Compound 22, (4-{[(furan-2-ylmethyl){4-[3-(piperidin-1-yl)propoxy]benzyl}amino]methyl}phenyl)(7-hydroxy-3,4-dihydroisoquinolin-2(1H)-yl)methanone], in the experiment with T-47D cells, the activity at 0.01 µM was determined as 95.6 ± 1.8%, the activity at 0.1 µM was found to be 120 ± 4.8% and the activity at 1 µM was determined as 134 ± 3%.

As for `NS(=O)(=O)Oc1ccc2c(c1)CN(C(=O)c1cccc(CN(CCO)Cc3ccccc3)c1)CC2` [4-EO-02], the figures for the “STS inhibition (%)” value at STS (0.1 μM) and at STS (1 μM) were 26.7 ± 7.2% and 32.4 ± 6.3%, respectively.

As for `CCN(Cc1cccc(Br)c1)Cc1cccc(C(=O)N2CCc3ccc(OS(N)(=O)=O)cc3C2)c1` [4-EO-12], the “STS inhibition (%)” value on STS (0.1 μM) came out at 20.9 ± 7.1%; on STS (1 μM), 24.9 ± 0.6%.

In the case of `CN(C)CCN(Cc1ccccc1)Cc1ccc(C(=O)N2CCc3ccc(OS(N)(=O)=O)cc3C2)cc1` [3-EO-04], the results for the “STS inhibition (%)” value on STS (0.1 μM) and on STS (1 μM) were 13.9 ± 4.8% and 57.8 ± 3.4%, respectively.

Regarding `NS(=O)(=O)Oc1ccc2c(c1)CN(C(=O)c1ccc(CN3CCSCC3)cc1)CC2` [1-EO-03], the figures for the “STS inhibition (%)” value at STS (0.1 μM) and on STS (1 μM) were 32.3 ± 1.0% and 80.2 ± 0.9%, respectively.

As to `CN(C)CCCN(Cc1ccccc1)Cc1ccc(C(=O)N2CCc3ccc(OS(N)(=O)=O)cc3C2)cc1` [3-EO-05], the “STS inhibition (%)” value on STS (0.1 μM) stood at 16.2 ± 4.6%; at STS (1 μM), 61.6 ± 4.9%.

On to `CCCN(Cc1ccccc1)Cc1cccc(C(=O)N2CCc3ccc(OS(N)(=O)=O)cc3C2)c1` [4-EO-01], for which the “STS inhibition (%)” value is on record as 23.1 ± 7.5% on STS (0.1 μM) and 67.4 ± 10.9% at STS (1 μM).

As for `CCN(Cc1ccc(Br)cc1)Cc1ccc(C(=O)N2CCc3ccc(OS(N)(=O)=O)cc3C2)cc1` [3-EO-13], the “STS inhibition (%)” value is 78% and 78.2 ± 1.7% at STS (0.1 μM); 95.9 ± 0.6% on STS (1 μM).

With `CCCN(CCC)Cc1cccc(C(=O)N2CCc3ccc(OS(N)(=O)=O)cc3C2)c1` [2-EO-10], the figures for the “STS inhibition (%)” value at STS (0.1 μM) and on STS (1 μM) were 8.3 ± 0.0% and 54.8 ± 1.2%, respectively.

Turning to `CN(C)CCN(CCN(C)C)Cc1cccc(C(=O)N2CCc3ccc(OS(N)(=O)=O)cc3C2)c1` [4-EO-08], the entries for the “STS inhibition (%)” value on STS (0.1 μM) and at STS (1 μM) were 0.0 ± 0.0% and 17.1 ± 7.6%, respectively.
